Reference: paper PMC9292294 (Chemmedchem, 2021)

Key:
[1] = molecular target: human β‐FXIIa (Homo sapiens, UniProt P00748); format: biochemical
[2] = molecular target: human α‐thrombin (factor IIa) (Homo sapiens, UniProt P00734); format: biochemical
[3] = molecular target: human Factor Xa (Homo sapiens, UniProt P00742); assay: FXa inhibition assay, fluorogenic substrate Boc‐Ile‐Glu‐Gly‐Arg‐AMC; format: biochemical
[4] = molecular target: porcine trypsin (Sus scrofa, UniProt P00761); assay: Trypsin inhibition assay, fluorogenic substrate Z‐Gly‐Gly‐Arg‐AMC; format: biochemical; conditions: for inhibition at 5 µM: read-out: Trypsin inhibition % at 5 μM
[5] = molecular target: FXIIa (Homo sapiens, UniProt P00748); assay: Medium‐throughput screening; format: biochemical; conditions: read-out: Inhibition @100 nM [in MTS] FXIIa
[6] = molecular target: thrombin (FIIa) (Homo sapiens, UniProt P00734); assay: Medium‐throughput screening; format: biochemical; conditions: read-out: Inhibition @100 nM [in MTS] FIIa
[7] = tested on: human pooled plasma; assay: In vitro plasma coagulation assay, activated partial thromboplastin time; conditions: 200 μM, fold increase compared to DMSO
[8] = molecular target: human plasma β‐FXIIa (Homo sapiens, UniProt P00748); assay: Mass‐shift analysis of the covalent FXIIa‐inhibitor complex by SEC/ESI‐MS; format: binding; conditions: 15 min incubation, enzyme:inhibitor 1 : 20
human plasma β‐FXIIa, sequence (P00748 373-615 limits assumed, other chains not shown): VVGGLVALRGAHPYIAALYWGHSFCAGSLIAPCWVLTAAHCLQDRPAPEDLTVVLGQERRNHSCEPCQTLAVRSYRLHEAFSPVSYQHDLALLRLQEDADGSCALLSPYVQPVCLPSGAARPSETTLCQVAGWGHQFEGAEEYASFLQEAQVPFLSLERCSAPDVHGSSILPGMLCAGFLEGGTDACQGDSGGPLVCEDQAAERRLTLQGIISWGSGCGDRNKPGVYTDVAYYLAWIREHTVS

human Factor Xa, sequence (P00742 235-488 limits assumed): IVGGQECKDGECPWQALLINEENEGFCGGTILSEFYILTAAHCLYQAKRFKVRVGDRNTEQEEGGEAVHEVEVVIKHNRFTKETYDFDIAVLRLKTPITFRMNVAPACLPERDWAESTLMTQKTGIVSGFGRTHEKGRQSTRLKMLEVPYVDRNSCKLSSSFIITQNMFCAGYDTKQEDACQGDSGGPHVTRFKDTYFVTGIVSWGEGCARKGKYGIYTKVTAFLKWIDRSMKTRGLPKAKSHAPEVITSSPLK
human Factor Xa, sequence (P00742 41-179 limits assumed): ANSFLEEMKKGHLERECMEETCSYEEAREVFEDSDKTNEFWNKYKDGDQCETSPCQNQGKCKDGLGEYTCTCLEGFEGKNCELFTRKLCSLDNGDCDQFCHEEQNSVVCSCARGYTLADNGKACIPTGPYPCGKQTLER
porcine trypsin, sequence (P00761 9-231): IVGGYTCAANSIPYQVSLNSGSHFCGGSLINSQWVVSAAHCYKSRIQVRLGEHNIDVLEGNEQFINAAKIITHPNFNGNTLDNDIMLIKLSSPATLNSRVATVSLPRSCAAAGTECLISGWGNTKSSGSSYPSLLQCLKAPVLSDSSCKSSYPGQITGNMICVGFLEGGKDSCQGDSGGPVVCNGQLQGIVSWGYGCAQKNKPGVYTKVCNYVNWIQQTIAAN
human β‐FXIIa, sequence (P00748 373-615 limits assumed, other chains not shown): as the sequence (P00748 373-615 limits assumed, other chains not shown) above
FXIIa, sequence (P00748 373-615 limits assumed, other chains not shown): as above

SMILES	IC50 [1] [µM]	IC50 [2] [µM]	IC50 [3] [µM]	IC50 [4] [µM]	inhibition at 0.1 µM [5] [%]	inhibition at 0.1 µM [6] [%]	aPTT, fold [7] [fold]	mass shift of FXIIa (acyl moiety adduct) [8] [Da]	inhibition at 1 µM ([3]; read-out: FXa inhibition % at 1 μM) [%]	inhibition at 5 µM [4] [%]	fold improved FXIIa inhibitory activity ([1]; versus parent 33 h (122 nM vs. 33 nM)) [fold]
Nc1nc(-c2ccccc2C(=O)N2CCCCC2)nn1C(=O)[C@H]1CCCc2ccccc21 [33 j, (S)‐(2‐(5‐Amino‐1‐(1,2,3,4‐tetrahydronaphthalene‐1‐carbonyl)‐1H‐1,2,4‐triazol‐3‐yl)phenyl)‐(piperidin‐1‐yl)methanone]	1.52 ± 0.182	5.7 ± 0.33	> 5	> 5	8	1					
O=C(NC[C@H]1CN(c2ccc(N3CCOCC3=O)cc2)C(=O)O1)c1ccc(Cl)s1 [Rivaroxaban, reference compound]	> 5			> 5	-1	1					
CC(C)(C)c1nc(N)n(C(=O)[C@H]2CCCc3ccccc32)n1 [33 e, (S)‐(5‐Amino‐3‐(tert‐butyl)‐1H‐1,2,4‐triazol‐1‐yl)(1,2,3,4‐tetrahydronaphthalen‐1‐yl)methanone]	> 5	> 5	> 5	> 5	0	1					
Nc1nc(-c2cnccn2)nn1C(=O)[C@H]1CCCc2ccccc21 [33 c, (S)‐(5‐Amino‐3‐(pyrazin‐2‐yl)‐1H‐1,2,4‐triazol‐1‐yl)(1,2,3,4‐tetrahydronaphthalen‐1‐yl)methanone]	0.106 ± 0.013	0.143 ± 0.005	> 5	> 5	80	36	2.7				
Nc1nc(-c2ccc3ccccc3n2)nn1C(=O)[C@H]1CCCc2ccccc21 [33 g, (S)‐(5‐Amino‐3‐(quinolin‐2‐yl)‐1H‐1,2,4‐triazol‐1‐yl)(1,2,3,4‐tetrahydronaphthalen‐1‐yl)‐methanone]	0.033 ± 0.001	1.01 ± 0.155	> 5	> 5	94	5		158.2			
Cc1nc2ccccc2nc1-c1nc(N)n(C(=O)[C@H]2CCCc3ccccc32)n1 [33 h, (S)‐(5‐Amino‐3‐(3‐methylquinoxalin‐2‐yl)‐1H‐1,2,4‐triazol‐1‐yl)(1,2,3,4‐tetrahydronaphthalen‐1‐yl)methanone]	0.122 ± 0.035	> 5	> 5	> 5	81	0					
Nc1nc(-c2nccc3ccccc23)nn1C(=O)c1ccc2ccccc2c1 [41 c, (5‐Amino‐3‐(isoquinolin‐1‐yl)‐1H‐1,2,4‐triazol‐1‐yl)(naphthalen‐2‐yl)methanone]	> 5		> 5	> 5							
Nc1nc(-c2ccccn2)nn1C(=O)[C@H]1CCCc2ccccc21 [33 a, (S)‐(5‐Amino‐3‐(pyridin‐2‐yl)‐1H‐1,2,4‐triazol‐1‐yl)(1,2,3,4‐tetrahydro‐naphthalen‐1‐yl)‐methanone]				> 5	73	10					
Nc1nc(-c2cnc3ccccc3n2)nn1C(=O)c1cccc2ccccc12 [39 b, (5‐Amino‐3‐(quinoxalin‐2‐yl)‐1H‐1,2,4‐triazol‐1‐yl)(naphthalen‐1‐yl)methanone]		> 5	> 5	> 5							
[H]/N=C(/N)c1ccc(NCc2nc3cc(C(=O)N(CCC(=O)O)c4ccccn4)ccc3n2C)cc1 [Dabigatran, reference compound]	> 5				-1	91			34	59	
Nc1nc(-c2ccc3ccccc3n2)nn1C(=O)c1ccccc1 [40 a, (5‐Amino‐3‐(quinoline‐2‐yl)‐1H‐1,2,4‐triazol‐1‐yl)(phenyl)methanone]	0.013 ± 0.002	0.124 ± 0.01	> 5	> 5							
Nc1nc(-c2cnc3ccccc3n2)nn1C(=O)[C@H]1CCCc2ccccc21 [39 a, (S)‐(5‐Amino‐3‐(quinoxalin‐2‐yl)‐1H‐1,2,4‐triazol‐1‐yl)(1,2,3,4‐tetrahydronaphthalen‐1‐yl)‐methanone]	0.033 ± 0.007	> 5	> 5							32	3.7
Cc1nc(-c2cccs2)ccc1-c1nc(N)n(C(=O)[C@H]2CCCc3ccccc32)n1 [33 d, (S)‐(5‐Amino‐3‐(2‐methyl‐6‐(thiophen‐2‐yl)pyridin‐3‐yl)‐1H‐1,2,4‐triazol‐1‐yl)(1,2,3,4‐tetrahydro‐naphthalen‐1‐yl)methanone]	1.14 ± 0.334	> 5	> 5	> 5	26	0					
Cc1cccc(-c2nc(N)n(C(=O)[C@H]3CCCc4ccccc43)n2)n1 [33 b, (S)‐(5‐Amino‐3‐(6‐methylpyridin‐2‐yl)‐1H‐1,2,4‐triazol‐1‐yl)(1,2,3,4‐tetrahydronaphthalen‐1‐yl)‐methanone]	0.214 ± 0.035	0.819 ± 0.015	> 5	> 5	36	5					
Cc1nc(-c2cccs2)ccc1-c1nc(N)n(C(=O)Cc2ccccc2I)n1 [32 d, 1‐(5‐Amino‐3‐(2‐methyl‐6‐(thiophen‐2‐yl)pyridin‐3‐yl)‐1H‐1,2,4‐triazol‐1‐yl)‐2‐(2‐iodophenyl)‐ethan‐1‐one]	0.716 ± 0.082	> 5	> 5	> 5	8	0					
CC(C)(C)c1nc(N)n(C(=O)Cc2ccccc2I)n1 [32 e, 1‐(5‐Amino‐3‐(tert‐butyl)‐1H‐1,2,4‐triazol‐1‐yl)‐2‐(2‐iodophenyl)ethan‐1‐one]	> 5	> 5	> 5	> 5	3	1					
Nc1nc(-c2ccccn2)nn1C(=O)Cc1ccccc1I [32 a, 1‐(5‐Amino‐3‐(pyridin‐2‐yl)‐1H‐1,2,4‐triazol‐1‐yl)‐2‐(2‐iodophenyl)ethan‐1‐one]				> 5	54	2					
Nc1nc(-c2cnccn2)nn1C(=O)Cc1ccccc1I [32 c, 1‐(5‐Amino‐3‐(pyrazin‐2‐yl)‐1H‐1,2,4‐triazol‐1‐yl)‐2‐(2‐iodophenyl)ethan‐1‐one]	0.065 ± 0.009	1.69 ± 0.167	> 5	> 5	75	15					
Nc1nc(-c2nccc3ccccc23)nn1C(=O)c1ccccc1 [41 a, (5‐Amino‐3‐(isoquinolin‐1‐yl)‐1H‐1,2,4‐triazol‐1‐yl)(phenyl)methanone]	0.236 ± 0.005	0.063 ± 0.001	> 5	> 5							
Nc1nc(-c2nccc3ccccc23)nn1C(=O)[C@H]1CCCc2ccccc21 [33 i, (S)‐(5‐Amino‐3‐(isoquinolin‐1‐yl)‐1H‐1,2,4‐triazol‐1‐yl)(1,2,3,4‐tetrahydronaphthalen‐1‐yl)‐methanone]	0.547 ± 0.058	0.038 ± 0.009	> 5	> 5	14	62					
Cc1cccc(-c2nc(N)n(C(=O)Cc3ccccc3I)n2)n1 [32 b, 1‐(5‐Amino‐3‐(6‐methylpyridin‐2‐yl)‐1H‐1,2,4‐triazol‐1‐yl)‐2‐(2‐iodophenyl)ethan‐1‐one]	0.073 ± 0.022	> 5	> 5	> 5	54	0					
Nc1nc(-c2ccc3ccccc3n2)nn1C(=O)c1cccc2ccccc12 [40 b, (5‐Amino‐3‐(quinolin‐2‐yl)‐1H‐1,2,4‐triazol‐1‐yl)(naphthalen‐1‐yl)methanone]	0.008 ± 0.002	0.348 ± 0.015		> 5							
Nc1nc(-c2ccc(F)cc2)nn1C(=O)[C@H]1CCCc2ccccc21 [33 f, (S)‐(5‐Amino‐3‐(4‐fluorophenyl)‐1H‐1,2,4‐triazol‐1‐yl)(1,2,3,4‐tetrahydronaphthalen‐1‐yl)‐methanone]	~2	> 5	> 5	> 5	29	0					
